From ChEMBL document CHEMBL3991601, “The target landscape of clinical kinase drugs” (Science, 2017) come the findings set out here.

The source made the active and inactive calls. Rule as the data show it, for most assays here: actives have a measured Kd and inactives only a lower limit. A value given as a limit tells only on which side of the number the result lay.

One assay addresses T1, Ephrin type-B receptor 4 (Homo sapiens, UniProt P54760).
T1 sequence (P54760 whole entry): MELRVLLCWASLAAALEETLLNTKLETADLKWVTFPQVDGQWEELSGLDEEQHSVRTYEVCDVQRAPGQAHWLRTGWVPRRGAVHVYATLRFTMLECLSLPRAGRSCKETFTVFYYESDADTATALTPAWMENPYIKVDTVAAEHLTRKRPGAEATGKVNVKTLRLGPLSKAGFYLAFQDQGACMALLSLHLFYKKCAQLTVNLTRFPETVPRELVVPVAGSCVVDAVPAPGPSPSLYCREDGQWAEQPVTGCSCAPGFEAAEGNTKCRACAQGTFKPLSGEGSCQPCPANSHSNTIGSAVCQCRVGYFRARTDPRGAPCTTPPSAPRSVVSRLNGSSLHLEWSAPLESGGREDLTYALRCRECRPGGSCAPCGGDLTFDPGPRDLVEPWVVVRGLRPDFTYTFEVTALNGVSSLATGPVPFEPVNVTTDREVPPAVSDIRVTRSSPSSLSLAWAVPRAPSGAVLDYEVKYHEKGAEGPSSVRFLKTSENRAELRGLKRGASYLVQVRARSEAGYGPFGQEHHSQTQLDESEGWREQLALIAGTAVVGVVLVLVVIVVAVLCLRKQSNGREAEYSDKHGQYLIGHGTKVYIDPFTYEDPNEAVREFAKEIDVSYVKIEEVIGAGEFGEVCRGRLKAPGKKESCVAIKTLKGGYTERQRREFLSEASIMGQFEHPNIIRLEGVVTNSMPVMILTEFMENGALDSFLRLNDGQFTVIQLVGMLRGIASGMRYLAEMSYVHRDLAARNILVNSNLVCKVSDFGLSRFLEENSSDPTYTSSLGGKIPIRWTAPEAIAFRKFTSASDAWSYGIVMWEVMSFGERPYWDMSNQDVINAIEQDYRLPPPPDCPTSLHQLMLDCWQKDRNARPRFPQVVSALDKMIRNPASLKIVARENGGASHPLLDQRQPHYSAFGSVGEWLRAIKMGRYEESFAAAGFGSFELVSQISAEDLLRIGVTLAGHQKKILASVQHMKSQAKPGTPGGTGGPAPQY

For assay [1], the target named is Rho-associated protein kinase 2 (Homo sapiens, UniProt O75116).
Chain of Rho-associated protein kinase 2 (O75116 whole entry): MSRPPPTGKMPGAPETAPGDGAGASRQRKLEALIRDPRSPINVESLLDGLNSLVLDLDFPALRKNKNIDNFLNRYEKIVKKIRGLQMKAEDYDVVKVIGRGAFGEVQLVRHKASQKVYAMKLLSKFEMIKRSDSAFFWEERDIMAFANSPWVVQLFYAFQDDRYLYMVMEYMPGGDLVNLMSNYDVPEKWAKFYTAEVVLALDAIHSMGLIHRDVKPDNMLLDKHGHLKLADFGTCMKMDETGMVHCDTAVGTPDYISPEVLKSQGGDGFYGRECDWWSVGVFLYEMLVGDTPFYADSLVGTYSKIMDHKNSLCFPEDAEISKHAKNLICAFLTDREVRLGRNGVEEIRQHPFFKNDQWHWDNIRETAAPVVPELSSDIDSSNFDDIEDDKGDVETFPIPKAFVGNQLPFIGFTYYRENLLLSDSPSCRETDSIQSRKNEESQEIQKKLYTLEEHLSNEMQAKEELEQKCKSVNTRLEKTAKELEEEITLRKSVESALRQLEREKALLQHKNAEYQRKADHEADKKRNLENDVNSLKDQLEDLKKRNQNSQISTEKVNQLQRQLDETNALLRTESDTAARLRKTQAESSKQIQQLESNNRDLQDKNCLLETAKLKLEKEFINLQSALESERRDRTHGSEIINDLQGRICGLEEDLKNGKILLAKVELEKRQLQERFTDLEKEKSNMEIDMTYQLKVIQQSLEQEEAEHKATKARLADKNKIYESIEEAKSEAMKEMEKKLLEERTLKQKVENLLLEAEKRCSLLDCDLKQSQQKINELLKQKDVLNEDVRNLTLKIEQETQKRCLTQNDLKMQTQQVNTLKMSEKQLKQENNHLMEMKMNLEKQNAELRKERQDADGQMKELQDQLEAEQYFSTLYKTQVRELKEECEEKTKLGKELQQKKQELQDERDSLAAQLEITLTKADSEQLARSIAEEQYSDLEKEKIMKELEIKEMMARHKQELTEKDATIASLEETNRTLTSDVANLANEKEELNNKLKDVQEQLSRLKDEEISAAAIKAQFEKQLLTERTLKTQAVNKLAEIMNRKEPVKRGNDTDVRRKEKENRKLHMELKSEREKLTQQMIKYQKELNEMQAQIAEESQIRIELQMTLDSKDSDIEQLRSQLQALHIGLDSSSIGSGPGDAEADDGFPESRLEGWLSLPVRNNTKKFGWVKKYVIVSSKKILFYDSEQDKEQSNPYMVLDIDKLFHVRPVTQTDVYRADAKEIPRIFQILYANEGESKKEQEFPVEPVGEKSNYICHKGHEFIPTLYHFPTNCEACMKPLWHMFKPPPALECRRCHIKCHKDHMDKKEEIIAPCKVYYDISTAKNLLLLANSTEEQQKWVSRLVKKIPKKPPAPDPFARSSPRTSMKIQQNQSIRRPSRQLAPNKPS
Assay [2] concerns the target Mitogen-activated protein kinase 1 (Homo sapiens, UniProt P28482).
The target of assay [3] is Serine/threonine-protein kinase 10 (Homo sapiens, UniProt O94804).
Chain of Serine/threonine-protein kinase 10 (O94804 whole entry): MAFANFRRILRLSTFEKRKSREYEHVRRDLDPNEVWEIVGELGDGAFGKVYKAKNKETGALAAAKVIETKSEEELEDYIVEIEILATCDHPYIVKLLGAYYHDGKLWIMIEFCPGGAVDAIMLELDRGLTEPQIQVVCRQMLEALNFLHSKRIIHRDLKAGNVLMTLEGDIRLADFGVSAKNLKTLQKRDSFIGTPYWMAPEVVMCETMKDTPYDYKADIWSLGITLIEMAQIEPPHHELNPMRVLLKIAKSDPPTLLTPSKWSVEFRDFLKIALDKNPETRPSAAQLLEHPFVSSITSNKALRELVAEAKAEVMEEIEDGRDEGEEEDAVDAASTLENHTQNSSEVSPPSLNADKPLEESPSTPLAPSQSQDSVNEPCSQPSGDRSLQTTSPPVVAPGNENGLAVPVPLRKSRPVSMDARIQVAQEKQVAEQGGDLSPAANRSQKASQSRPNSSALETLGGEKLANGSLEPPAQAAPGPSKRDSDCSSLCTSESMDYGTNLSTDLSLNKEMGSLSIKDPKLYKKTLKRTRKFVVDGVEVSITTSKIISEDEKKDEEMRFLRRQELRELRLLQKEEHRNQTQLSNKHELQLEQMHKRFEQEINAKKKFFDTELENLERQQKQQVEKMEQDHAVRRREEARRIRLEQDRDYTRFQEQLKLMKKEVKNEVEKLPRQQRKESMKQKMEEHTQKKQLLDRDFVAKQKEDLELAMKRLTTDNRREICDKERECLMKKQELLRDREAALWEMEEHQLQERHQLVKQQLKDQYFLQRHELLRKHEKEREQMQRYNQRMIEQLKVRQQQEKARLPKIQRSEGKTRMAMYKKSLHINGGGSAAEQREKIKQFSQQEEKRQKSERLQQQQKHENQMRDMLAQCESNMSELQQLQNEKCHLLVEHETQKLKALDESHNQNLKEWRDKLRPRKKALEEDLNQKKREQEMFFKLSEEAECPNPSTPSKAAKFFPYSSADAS
Assay [4] addresses T2, Peroxisomal acyl-coenzyme A oxidase 3 (Homo sapiens, UniProt O15254).
T2 sequence (O15254 whole entry): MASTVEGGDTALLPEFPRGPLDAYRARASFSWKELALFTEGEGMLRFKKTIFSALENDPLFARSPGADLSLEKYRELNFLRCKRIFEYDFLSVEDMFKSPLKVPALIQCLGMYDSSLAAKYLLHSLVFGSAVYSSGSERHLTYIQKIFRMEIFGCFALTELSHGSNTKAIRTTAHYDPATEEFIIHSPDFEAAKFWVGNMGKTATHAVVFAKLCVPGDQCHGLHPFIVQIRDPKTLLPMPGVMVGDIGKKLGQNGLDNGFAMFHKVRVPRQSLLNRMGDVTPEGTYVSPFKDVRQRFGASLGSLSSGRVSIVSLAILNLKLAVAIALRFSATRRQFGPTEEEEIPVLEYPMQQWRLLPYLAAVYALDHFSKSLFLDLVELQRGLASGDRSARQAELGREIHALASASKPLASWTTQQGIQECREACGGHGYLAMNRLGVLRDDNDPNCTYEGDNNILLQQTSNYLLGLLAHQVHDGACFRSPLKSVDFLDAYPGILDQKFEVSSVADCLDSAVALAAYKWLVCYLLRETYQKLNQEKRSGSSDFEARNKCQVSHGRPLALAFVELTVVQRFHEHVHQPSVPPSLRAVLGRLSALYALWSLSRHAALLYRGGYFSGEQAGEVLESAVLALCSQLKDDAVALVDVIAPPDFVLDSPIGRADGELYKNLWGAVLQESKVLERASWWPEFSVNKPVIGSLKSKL

The target in another assay is GTP-binding protein 4 (Homo sapiens, UniProt Q9BZE4).
Assay [5] addresses T3, Serine/threonine-protein kinase 4 (Homo sapiens, UniProt Q13043).
T3 sequence (Q13043 whole entry): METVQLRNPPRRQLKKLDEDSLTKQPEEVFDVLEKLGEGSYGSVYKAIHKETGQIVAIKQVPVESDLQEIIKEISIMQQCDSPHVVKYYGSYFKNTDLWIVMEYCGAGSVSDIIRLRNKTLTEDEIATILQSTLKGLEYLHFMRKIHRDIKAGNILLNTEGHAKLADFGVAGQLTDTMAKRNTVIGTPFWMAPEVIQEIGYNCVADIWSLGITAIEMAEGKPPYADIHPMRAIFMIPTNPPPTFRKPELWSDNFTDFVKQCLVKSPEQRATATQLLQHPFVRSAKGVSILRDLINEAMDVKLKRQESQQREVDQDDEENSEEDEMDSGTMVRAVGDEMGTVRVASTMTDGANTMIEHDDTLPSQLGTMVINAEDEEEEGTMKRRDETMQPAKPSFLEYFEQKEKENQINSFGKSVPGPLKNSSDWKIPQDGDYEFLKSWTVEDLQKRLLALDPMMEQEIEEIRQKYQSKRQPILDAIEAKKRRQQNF
Also: in the data inactive means no Kd found up to 30 µM.

Chain of Mitogen-activated protein kinase 1 (P28482 whole entry): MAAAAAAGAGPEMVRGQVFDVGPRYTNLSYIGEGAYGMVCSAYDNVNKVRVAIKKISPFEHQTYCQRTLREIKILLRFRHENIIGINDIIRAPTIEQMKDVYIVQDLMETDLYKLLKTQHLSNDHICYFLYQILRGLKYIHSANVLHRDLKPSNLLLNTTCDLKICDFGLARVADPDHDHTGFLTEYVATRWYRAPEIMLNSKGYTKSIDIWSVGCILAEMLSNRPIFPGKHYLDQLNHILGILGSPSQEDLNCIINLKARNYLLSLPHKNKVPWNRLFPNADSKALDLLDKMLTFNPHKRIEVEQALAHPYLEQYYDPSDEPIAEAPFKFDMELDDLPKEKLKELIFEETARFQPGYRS

The Kd is the constant that tells how readily two partners part at equilibrium. Consider `CN(C[C@@H]1COCCO1)S(=O)(=O)Nc1ccc2ccc3ncc(-c4cnn(C)c4)cc3c(=O)c2c1` [MK-2461], for which the Kd (on Ephrin type-B receptor 4; in assay [1]; in assay [2]; in assay [3]; in assay [4]; at GTP-binding protein 4) was > 30 µM (inactive) throughout. In addition, the Kd in assay [5] was > 30 µM (inactive).

`Cn1cc(-c2cnc3ccc4ccc(CS(=O)(=O)NCc5ccccn5)cc4c(=O)c3c2)cn1` [MK-8033]: the Kd (on Ephrin type-B receptor 4; in assay [1]; in assay [2]; in assay [3]; in assay [4]; on GTP-binding protein 4) was > 30 µM (inactive) in each case. Also, the Kd in assay [5] is > 30 µM (inactive).

On to `FC(F)(F)c1ccc(/C=C/c2nc(COc3ccc(CCCCn4ccnn4)cc3)co2)cc1` [MUBRITINIB], for which the Kd (on Ephrin type-B receptor 4; in assay [1]; in assay [2]; in assay [3]; in assay [4]; at GTP-binding protein 4) was > 30 µM (inactive) throughout. For the same molecule, the Kd in assay [5] is > 30 µM (inactive).

On to `COc1ncc(-c2ccc3nccc(-c4ccnnc4)c3c2)cc1NS(=O)(=O)c1ccc(F)cc1F` [OMIPALISIB], for which the Kd (on Ephrin type-B receptor 4; in assay [1]; in assay [2]; in assay [3]; in assay [4]; on GTP-binding protein 4) was > 30 µM (inactive) throughout. Besides, the Kd in assay [5] was > 30 µM (inactive).

For the molecule `CCCCCCCCCCCCCCCCCCOP(=O)([O-])OC1CC[N+](C)(C)CC1` [PERIFOSINE], the Kd (at Ephrin type-B receptor 4; in assay [1]; in assay [2]; in assay [3]; in assay [4]; on GTP-binding protein 4) was > 30 µM (inactive) in each case. The Kd in assay [5] is > 30 µM (inactive).

As to `Cc1nc(Nc2n[nH]c3c2CN(C(=O)N[C@H](CN(C)C)c2ccccc2)C3(C)C)c2sccc2n1` [PF-03758309], the Kd on Ephrin type-B receptor 4 was > 30 µM (inactive); in assay [1] it was > 30 µM (inactive); in assay [2], 1.96 µM (active); in assay [3] it was > 30 µM (inactive); in assay [4] it was > 30 µM (inactive); at GTP-binding protein 4 it was > 30 µM (inactive). Besides, the Kd in assay [5] is 4.32 µM (active).

For `Cc1cnc(NC(=O)Nc2cc(Br)c(C)cc2OC[C@@H]2CNCCO2)cn1` [RABUSERTIB], the Kd (at Ephrin type-B receptor 4; in assay [1]; in assay [2]; in assay [3]; in assay [4]; on GTP-binding protein 4) was > 30 µM (inactive) in each case. The Kd in assay [5] is > 30 µM (inactive).

For `CO[C@H]1C[C@@H]2CC[C@@H](C)[C@@](O)(O2)C(=O)C(=O)N2CCCC[C@H]2C(=O)O[C@H]([C@H](C)C[C@@H]2CC[C@@H](OP(C)(C)=O)[C@H](OC)C2)CC(=O)[C@H](C)/C=C(\C)[C@@H](O)[C@@H](OC)C(=O)[C@H](C)C[C@H](C)/C=C/C=C/C=C/1C` [RIDAFOROLIMUS], the Kd (on Ephrin type-B receptor 4; in assay [1]; in assay [2]; in assay [3]; in assay [4]; at GTP-binding protein 4) was > 30 µM (inactive) throughout. The Kd in assay [5] is > 30 µM (inactive).

Regarding `N#CC1(c2ccc(NC(=O)c3cccnc3NCc3ccncc3)cc2)CCCC1` [RIVOCERANIB], the Kd (at Ephrin type-B receptor 4; in assay [1]; in assay [2]; in assay [3]; in assay [4]; on GTP-binding protein 4) was > 30 µM (inactive) throughout. Also, the Kd in assay [5] is > 30 µM (inactive).

Turning to `O=c1[nH]ccc2cc(OC3CCNCC3)ccc12` [SAR-407899 FREE BASE], the Kd is > 30 µM (inactive) on Ephrin type-B receptor 4; 0.016 µM (active) in assay [1]; > 30 µM (inactive) in assay [2]; > 30 µM (inactive) in assay [3]; > 30 µM (inactive) in assay [4]; > 30 µM (inactive) on GTP-binding protein 4. The Kd in assay [5] was > 30 µM (inactive).

For the molecule `Cn1cc(-c2cnn3c(N)c(Br)c([C@@H]4CCCNC4)nc23)cn1` [SCH-900776], the Kd at Ephrin type-B receptor 4 is > 30 µM (inactive); in assay [1], > 30 µM (inactive); in assay [2], > 30 µM (inactive); in assay [3], 4.39 µM (active); in assay [4], > 30 µM (inactive); on GTP-binding protein 4, > 30 µM (inactive). Besides, the Kd in assay [5] was > 30 µM (inactive).

Consider `CO[C@H]1C[C@@H]2CC[C@@H](C)[C@@](O)(O2)C(=O)C(=O)N2CCCC[C@H]2C(=O)O[C@H]([C@H](C)C[C@@H]2CC[C@@H](O)[C@H](OC)C2)CC(=O)[C@H](C)/C=C(\C)[C@@H](O)[C@@H](OC)C(=O)[C@H](C)C[C@H](C)/C=C/C=C/C=C/1C` [SIROLIMUS], for which the Kd (on Ephrin type-B receptor 4; in assay [1]; in assay [2]; in assay [3]; in assay [4]; at GTP-binding protein 4) was > 30 µM (inactive) in each case. In addition, the Kd in assay [5] was > 30 µM (inactive).

As for `CO[C@H]1C[C@@H]2CC[C@@H](C)[C@@](O)(O2)C(=O)C(=O)N2CCCC[C@H]2C(=O)O[C@H]([C@H](C)C[C@@H]2CC[C@@H](OC(=O)C(C)(CO)CO)[C@H](OC)C2)CC(=O)[C@H](C)/C=C(\C)[C@@H](O)[C@@H](OC)C(=O)[C@H](C)C[C@H](C)/C=C/C=C/C=C/1C` [TEMSIROLIMUS], the Kd (on Ephrin type-B receptor 4; in assay [1]; in assay [2]; in assay [3]; in assay [4]; at GTP-binding protein 4) was > 30 µM (inactive) in each case. Also, in assay [5], the Kd was > 30 µM (inactive).

On to `COc1cc2c(Nc3ccc(Cl)c(Cl)c3F)ncnc2cc1OC[C@@H]1C[C@@H]2CN(C)C[C@@H]2C1` [TESEVATINIB], for which the Kd at Ephrin type-B receptor 4 was 0.037 µM (active); in assay [1], > 30 µM (inactive); in assay [2], > 30 µM (inactive); in assay [3] it was 1.91 µM (active); in assay [4], > 30 µM (inactive); at GTP-binding protein 4 it was > 30 µM (inactive). Moreover, in assay [5], the Kd was > 30 µM (inactive).
